Experiments:
[1] = Cytotoxicity against human Hep2 cells assessed as decrease in cell viability after 48 hrs by neutral red uptake assay; format: cell-based; conditions: HEp-2 cells
Poliovirus 1 = experiment: Antiviral activity against Poliovirus 1 LSc-2ab infected in human Hep2 cells assessed as inhibition of virus-induced cytopathic effect after 48 hrs by neutral red uptake assay; format: functional, cell-based
[2] = Selectivity index, ratio of CC50 for human Hep2 cells to IC50 for Poliovirus 1 infected in human Hep2 cells; format: toxicity, cell-based; conditions: HEp-2 cells, read-out: Ratio CC50/IC50
Coxsackievirus B1 [3] = experiment: Antiviral activity against Coxsackievirus B1 Connecticut 5 infected in human Hep2 cells assessed as inhibition of virus-induced cytopathic effect after 48 hrs by neutral red uptake assay; format: functional, cell-based
Coxsackievirus B3 = experiment: Antiviral activity against Coxsackievirus B3 Nancy infected in human Hep2 cells assessed as inhibition of virus-induced cytopathic effect after 48 hrs by neutral red uptake assay; format: functional, cell-based
[4] = Selectivity index, ratio of CC50 for human Hep2 cells to IC50 for Coxsackievirus B1 Connecticut 5 infected in human Hep2 cells; format: toxicity, cell-based; conditions: HEp-2 cells, read-out: Ratio CC50/IC50
[5] = Selectivity index, ratio of CC50 for human Hep2 cells to IC50 for Coxsackievirus B3 Nancy infected in human Hep2 cells; format: toxicity, cell-based; conditions: HEp-2 cells, read-out: Ratio CC50/IC50
Coxsackievirus B1 [6] = experiment: Antiviral activity against Coxsackievirus B1 infected in new born ICR mouse assessed as increase in mean survival time at 75 mg/kg, sc administered for 12 days; format: functional
Coxsackievirus B1 [7] = experiment: Antiviral activity against Coxsackievirus B1 infected in new born ICR mouse assessed as mortality at 75 mg/kg, sc administered for 12 days (reference value: 100%); format: functional; conditions: Enterovirus B, 288 h
Coxsackievirus B1 [8] = experiment: Antiviral activity against Coxsackievirus B1 infected in new born ICR mouse assessed as protection index at 75 mg/kg, sc administered for 12 days (reference value: 0%); format: functional
Coxsackievirus B1 [9] = experiment: Antiviral activity against Coxsackievirus B1 infected in new born ICR mouse assessed as increase in mean survival time at 50 mg/kg, sc administered for 12 days; format: functional
Coxsackievirus B1 [10] = experiment: Antiviral activity against Coxsackievirus B1 infected in new born ICR mouse assessed as mortality at 50 mg/kg, sc administered for 12 days (reference value: 100%); format: functional; conditions: Enterovirus B, 288 h
Coxsackievirus B1 [11] = experiment: Antiviral activity against Coxsackievirus B1 infected in new born ICR mouse assessed as protection index at 50 mg/kg, sc administered for 12 days (reference value: 0%); format: functional
Coxsackievirus B1 [12] = experiment: Antiviral activity against Coxsackievirus B1 infected in new born ICR mouse assessed as increase in mean survival time at 25 mg/kg, sc administered for 12 days; format: functional
Coxsackievirus B1 [13] = experiment: Antiviral activity against Coxsackievirus B1 infected in new born ICR mouse assessed as mortality at 25 mg/kg, sc administered for 12 days (reference value: 100%); format: functional; conditions: Enterovirus B, 288 h
Coxsackievirus B1 [14] = experiment: Antiviral activity against Coxsackievirus B1 infected in new born ICR mouse assessed as protection index at 25 mg/kg, sc administered for 12 days (reference value: 0%); format: functional
[15] = Enterovirus C, LSc-2ab, HEp-2, 48 h, read-out: IC50
[16] = Enterovirus B, Connecticut 5, HEp-2, 48 h, read-out: IC50
[17] = Enterovirus B, Nancy, HEp-2, 48 h, read-out: IC50

Structure (SMILES) | CC50 at 48 h [1] | IC50 (Poliovirus 1; [15]) | selectivity ratio [2] | IC50 (Coxsackievirus B1 [3]; [16]) | IC50 (Coxsackievirus B3; [17]) | selectivity ratio [4] | selectivity ratio [5] | IC50 (Poliovirus 1) | IC50 (Coxsackievirus B1 [3]) | IC50 (Coxsackievirus B3) | other results
N#Cc1cc([N+](=O)[O-])ccc1Oc1ccc(Cl)c(Cl)c1 | 493 µM | 6.8 µM | 72.5 | 0.8 µM | 2.7 µM | 587 | 182 | – | – | – | MST (Coxsackievirus B1 [6]): 3 days; mortality at 75 mg/kg (Coxsackievirus B1 [7]): 100%; PI (Coxsackievirus B1 [8]): 0%
Cc1c(Br)cc(Br)c(Oc2ccc([N+](=O)[O-])cc2C#N)c1Br | 570 µM | – | – | 256 µM | 29.6 µM | 2.2 | 19.6 | Not Active | – | – | –
N#Cc1cc([N+](=O)[O-])ccc1Oc1c(Cl)c(Cl)c(Cl)c(Cl)c1Cl | 119 µM | – | – | 10.9 µM | 5.8 µM | 10.9 | 20.5 | Not Active | – | – | –
CC1(C)CC(Nc2ccc([N+](=O)[O-])cc2C#N)CC(C)(C)N1 | 675 µM | – | – | – | 426 µM | – | 1.5 | Not Active | Not Active | – | –
N#Cc1cc([N+](=O)[O-])ccc1Oc1ncn(-c2ccccc2)n1 | 571 µM | – | – | 190 µM | – | 3 | – | Not Active | – | Not Active | –
N#Cc1cc([N+](=O)[O-])ccc1Oc1c(F)cccc1F | 355 µM | 6.8 µM | 52.2 | 0.7 µM | – | 507 | – | – | – | Not Active | MST (Coxsackievirus B1 [9]): 5.4 days; mortality at 50 mg/kg (Coxsackievirus B1 [10]): 66.7%; PI (Coxsackievirus B1 [11]): 33.3%
N#Cc1cc([N+](=O)[O-])ccc1Oc1ccccc1-c1cn2ccccc2n1 | 718 µM | – | – | – | – | – | – | Not Active | Not Active | Not Active | –
COc1ccc(Oc2ccc([N+](=O)[O-])cc2C#N)c(C(C)(C)C)c1 | 22 µM | – | – | – | – | – | – | Not Active | Not Active | Not Active | –
N#Cc1cc([N+](=O)[O-])ccc1Oc1ccc(F)c(F)c1 | 320 µM | 2.7 µM | 118 | 0.8 µM | – | 405 | – | – | – | Not Active | MST (Coxsackievirus B1 [9]): 5 days; mortality at 50 mg/kg (Coxsackievirus B1 [10]): 50%; PI (Coxsackievirus B1 [11]): 50%
N#Cc1cc([N+](=O)[O-])ccc1N1C[C@@H]2C[C@H](C1)c1cccc(=O)n1C2 | 492 µM | 234 µM | 2.1 | 152 µM | – | 3.2 | – | – | – | Not Active | –
N#Cc1cc([N+](=O)[O-])ccc1Oc1c(F)cc(F)cc1F | 518 µM | 2.7 µM | 192 | 0.75 µM | – | 690 | – | – | – | Not Active | MST (Coxsackievirus B1 [12]): 2.6 days; mortality at 25 mg/kg (Coxsackievirus B1 [13]): 88.4%; PI (Coxsackievirus B1 [14]): 11.6%
N#Cc1cc([N+](=O)[O-])ccc1Sc1ccccc1Cl | 53.8 µM | – | – | – | 9.9 µM | – | 5.4 | Not Active | Not Active | – | –
Cc1ccc(C(C)C)c(Oc2ccc([N+](=O)[O-])cc2C#N)c1 | 94.3 µM | – | – | 16.2 µM | – | 5.8 | – | Not Active | – | Not Active | –

From ChEMBL document CHEMBL4043211, “Synthesis and anti-enterovirus activity of new analogues of MDL-860” (Bioorg Med Chem Lett, 2017)
